The test system of the data set is CCRIS mutagenicity, Ames/micronucleus/aberration tests. As to the kind of experiment: CCRIS mutagenicity studies.
The mark [1] stands for this setting: Test System: AMES SALMONELLA TYPHIMURIUM, Strain/Indicator: TA1537, Metabolic Activation: NONE, Method: STANDARD PLATE.
The mark [2] stands for this setting: Test System: Mouse lymphoma, Strain/Indicator: L5178Y (tk+/tk-), Metabolic Activation: None, Method: Suspension/plate.
[3] abbreviates: Test System: Mouse lymphoma, Strain/Indicator: L5178Y (tk+/tk-), Metabolic Activation: Rat, Liver, S-9, Aroclor 1254, Method: Suspension/plate.
Setting [4] is: Test System: AMES SALMONELLA TYPHIMURIUM, Strain/Indicator: TA98, Metabolic Activation: NONE, Method: PREINCUBATION
Setting [5] is: Test System: AMES SALMONELLA TYPHIMURIUM, Strain/Indicator: TA98, Metabolic Activation: RAT, LIVER, S-9, AROCLOR 1254 (10%), Method: PREINCUBATION
[6] abbreviates: Test System: AMES SALMONELLA TYPHIMURIUM, Strain/Indicator: TA100, Metabolic Activation: NONE, Method: PREINCUBATION
Where [7] appears, read: Test System: AMES SALMONELLA TYPHIMURIUM, Strain/Indicator: TA100, Metabolic Activation: RAT, LIVER, S-9, AROCLOR 1254 (10%), Method: PREINCUBATION

The structures appear in SMILES notation. Active and inactive are the calls of the source. How the calls were made is not given here.

Take `CC1CCCO1` (centres undefined): the mutagenic call was “inactive; negative” (Test System: AMES SALMONELLA TYPHIMURIUM, Strain/Indicator: TA98, Metabolic Activation: HAMSTER LIVER S-9, AROCLOR 1254, Method: STANDARD PLATE); “inactive; negative” (Test System: AMES SALMONELLA TYPHIMURIUM, Strain/Indicator: TA98, Metabolic Activation: NONE, Method: STANDARD PLATE); “inactive; negative” (Test System: AMES SALMONELLA TYPHIMURIUM, Strain/Indicator: TA98, Metabolic Activation: RAT LIVER S-9, AROCLOR 1254, Method: STANDARD PLATE); “inactive; negative” (Test System: AMES SALMONELLA TYPHIMURIUM, Strain/Indicator: TA100, Metabolic Activation: HAMSTER LIVER S-9, AROCLOR 1254, Method: STANDARD PLATE); “inactive; negative” (Test System: AMES SALMONELLA TYPHIMURIUM, Strain/Indicator: TA100, Metabolic Activation: NONE, Method: STANDARD PLATE); “inactive; negative” (Test System: AMES SALMONELLA TYPHIMURIUM, Strain/Indicator: TA100, Metabolic Activation: RAT LIVER S-9, AROCLOR 1254, Method: STANDARD PLATE). The mutagenic call was “inactive; negative” (Test System: AMES SALMONELLA TYPHIMURIUM, Strain/Indicator: TA102, Metabolic Activation: HAMSTER LIVER S-9, AROCLOR 1254, Method: STANDARD PLATE); “inactive; negative” (Test System: AMES SALMONELLA TYPHIMURIUM, Strain/Indicator: TA102, Metabolic Activation: NONE, Method: STANDARD PLATE); “inactive; negative” (Test System: AMES SALMONELLA TYPHIMURIUM, Strain/Indicator: TA102, Metabolic Activation: RAT LIVER S-9, AROCLOR 1254, Method: STANDARD PLATE); “inactive; negative” (Test System: AMES SALMONELLA TYPHIMURIUM, Strain/Indicator: TA1535, Metabolic Activation: HAMSTER LIVER S-9, AROCLOR 1254, Method: STANDARD PLATE); “inactive; negative” (Test System: AMES SALMONELLA TYPHIMURIUM, Strain/Indicator: TA1535, Metabolic Activation: NONE, Method: STANDARD PLATE); “inactive; negative” (Test System: AMES SALMONELLA TYPHIMURIUM, Strain/Indicator: TA1535, Metabolic Activation: RAT LIVER S-9, AROCLOR 1254, Method: STANDARD PLATE). Also, the mutagenic call by setting is: (Test System: AMES SALMONELLA TYPHIMURIUM, Strain/Indicator: TA1537, Metabolic Activation: HAMSTER LIVER S-9, AROCLOR 1254, Method: STANDARD PLATE) “inactive; negative”; under setting [1], “inactive; negative”; (Test System: AMES SALMONELLA TYPHIMURIUM, Strain/Indicator: TA1537, Metabolic Activation: RAT LIVER S-9, AROCLOR 1254, Method: STANDARD PLATE) “inactive; negative”; under setting [2], “inactive; negative”; under setting [3], “inactive; inconclusive (previous evaluation negative)”.

For `O=C1c2ccccc2C(=O)c2c(O)cccc21`, the mutagenic call is “inactive; negative” under setting [4]; “inactive; negative” under setting [5]; “inactive; negative” (Test System: AMES SALMONELLA TYPHIMURIUM, Strain/Indicator: TA98, Metabolic Activation: RAT, LIVER, S-9, AROCLOR 1254, Method: PREINCUBATION); “inactive; negative” under setting [6]; “inactive; negative” under setting [7]; “inactive; negative” (Test System: AMES SALMONELLA TYPHIMURIUM, Strain/Indicator: TA100, Metabolic Activation: RAT, LIVER, S-9, AROCLOR 1254, Method: PREINCUBATION). Moreover, the mutagenic call was “inactive; negative” (Test System: AMES SALMONELLA TYPHIMURIUM, Strain/Indicator: TA102, Metabolic Activation: NONE, Method: PREINCUBATION); “inactive; negative” (Test System: AMES SALMONELLA TYPHIMURIUM, Strain/Indicator: TA102, Metabolic Activation: RAT, LIVER, S-9, AROCLOR 1254 (10%), Method: PREINCUBATION); “active; positive” (Test System: AMES SALMONELLA TYPHIMURIUM, Strain/Indicator: TA1537, Metabolic Activation: NONE, Method: PREINCUBATION); “active; positive” (Test System: AMES SALMONELLA TYPHIMURIUM, Strain/Indicator: TA1537, Metabolic Activation: RAT, LIVER, S-9, AROCLOR 1254, Method: PREINCUBATION); “active; positive” (Test System: UDS RODENT HEPATOCYTES, Strain/Indicator: THY INCORP, Metabolic Activation: NONE).

Turning to `O=C(O)/C(Cl)=C(\CCl)C(Cl)Cl`, the mutagenic call under setting [4] was “active; positive”; the mutagenic call under setting [6] is “active; positive”; the mutagenic call (Test System: AMES SALMONELLA TYPHIMURIUM, Strain/Indicator: TA104, Metabolic Activation: NONE, Method: PREINCUBATION) was “active; positive”.

For `O[C@H]1C=Cc2c(ccc3cc4c(ccc5ccccc54)cc23)[C@@H]1O`, the mutagenic call (Test System: AMES SALMONELLA TYPHIMURIUM, Strain/Indicator: TA100, Metabolic Activation: RAT, LIVER, S-9, AROCLOR 1254, Method: STANDARD PLATE) was “active; positive”.

In the case of `C=C(C)C1CC=C(CO)CC1` (centres undefined), the mutagenic call is “inactive; negative” under setting [2] and “inactive; positive. retest at same dose: negative” under setting [3].

In the case of `CN(C)CCNC(=O)c1cccc2c1ncc1ccccc12`, the mutagenic call under setting [1] was “active; positive”.

Take `O=[N+]([O-])c1ccccc1Nc1ccccc1`: the mutagenic call runs as follows: (Test System: AMES SALMONELLA TYPHIMURIUM, Strain/Indicator: TA97, Metabolic Activation: HAMSTER, LIVER, S-9, AROCLOR 1254 (5, 10 OR 30%), Method: PREINCUBATION) “inactive; negative”; (Test System: AMES SALMONELLA TYPHIMURIUM, Strain/Indicator: TA97, Metabolic Activation: NONE, Method: PREINCUBATION) “inactive; negative”; (Test System: AMES SALMONELLA TYPHIMURIUM, Strain/Indicator: TA97, Metabolic Activation: RAT, LIVER, S-9, AROCLOR 1254 (10%), Method: PREINCUBATION) “inactive; negative”; (Test System: AMES SALMONELLA TYPHIMURIUM, Strain/Indicator: TA97, Metabolic Activation: RAT, LIVER, S-9, AROCLOR 1254 (30%), Method: PREINCUBATION) “inactive; negative”; (Test System: AMES SALMONELLA TYPHIMURIUM, Strain/Indicator: TA98, Metabolic Activation: HAMSTER, LIVER, S-9, AROCLOR 1254 (10%), Method: PREINCUBATION) “inactive; negative”; (Test System: AMES SALMONELLA TYPHIMURIUM, Strain/Indicator: TA98, Metabolic Activation: HAMSTER, LIVER, S-9, AROCLOR 1254 (30%), Method: PREINCUBATION) “inactive; negative”. The mutagenic call reads like this: under setting [4], “inactive; negative”; under setting [5], “inactive; negative”; (Test System: AMES SALMONELLA TYPHIMURIUM, Strain/Indicator: TA98, Metabolic Activation: RAT, LIVER, S-9, AROCLOR 1254 (30%), Method: PREINCUBATION) “inactive; negative”; (Test System: AMES SALMONELLA TYPHIMURIUM, Strain/Indicator: TA100, Metabolic Activation: HAMSTER, LIVER, S-9, AROCLOR 1254 (10%), Method: PREINCUBATION) “inactive; negative”; (Test System: AMES SALMONELLA TYPHIMURIUM, Strain/Indicator: TA100, Metabolic Activation: HAMSTER, LIVER, S-9, AROCLOR 1254 (30%), Method: PREINCUBATION) “inactive; negative”; under setting [6], “inactive; negative”. Further, the mutagenic call is, setting by setting: under setting [7], “inactive; negative”; (Test System: AMES SALMONELLA TYPHIMURIUM, Strain/Indicator: TA100, Metabolic Activation: RAT, LIVER, S-9, AROCLOR 1254 (30%), Method: PREINCUBATION) “inactive; negative”; (Test System: AMES SALMONELLA TYPHIMURIUM, Strain/Indicator: TA1535, Metabolic Activation: HAMSTER, LIVER, S-9, AROCLOR 1254 (10%), Method: PREINCUBATION) “inactive; negative”; (Test System: AMES SALMONELLA TYPHIMURIUM, Strain/Indicator: TA1535, Metabolic Activation: HAMSTER, LIVER, S-9, AROCLOR 1254 (30%), Method: PREINCUBATION) “inactive; negative”; (Test System: AMES SALMONELLA TYPHIMURIUM, Strain/Indicator: TA1535, Metabolic Activation: NONE, Method: PREINCUBATION) “inactive; negative”; (Test System: AMES SALMONELLA TYPHIMURIUM, Strain/Indicator: TA1535, Metabolic Activation: RAT, LIVER, S-9, AROCLOR 1254 (10%), Method: PREINCUBATION) “inactive; negative”. Besides, where the note is “Test System: AMES SALMONELLA TYPHIMURIUM, Strain/Indicator: TA1535, Metabolic Activation: RAT, LIVER, S-9, AROCLOR 1254 (30%), Method: PREINCUBATION”, the mutagenic call was “inactive; negative”.

The values above are taken from PubChem BioAssay AID1259407 (Chemical Carcinogenesis Research Information System (CCRIS), 2018).
